Results as given in patent US20260000781A1, “FC CONJUGATES INCLUDING AN INHIBITOR OF CD73 AND USES THEREOF” (Cidara Therapeutics, Inc., priority 2022, published 2026).

Columns and labels:
[1] = target: T1, surface-expressed CD73 on human PBMCs (Homo sapiens, UniProt P21589); experiment: Human immune cell-based CD73 enzyme inhibition assay (PBMCs); conditions: AMP 300 μM, 2.5-3 h
T1 construct: 72400 (T cells); host or cells: human PBMCs / human T cells
T1 sequence (P21589 27-549): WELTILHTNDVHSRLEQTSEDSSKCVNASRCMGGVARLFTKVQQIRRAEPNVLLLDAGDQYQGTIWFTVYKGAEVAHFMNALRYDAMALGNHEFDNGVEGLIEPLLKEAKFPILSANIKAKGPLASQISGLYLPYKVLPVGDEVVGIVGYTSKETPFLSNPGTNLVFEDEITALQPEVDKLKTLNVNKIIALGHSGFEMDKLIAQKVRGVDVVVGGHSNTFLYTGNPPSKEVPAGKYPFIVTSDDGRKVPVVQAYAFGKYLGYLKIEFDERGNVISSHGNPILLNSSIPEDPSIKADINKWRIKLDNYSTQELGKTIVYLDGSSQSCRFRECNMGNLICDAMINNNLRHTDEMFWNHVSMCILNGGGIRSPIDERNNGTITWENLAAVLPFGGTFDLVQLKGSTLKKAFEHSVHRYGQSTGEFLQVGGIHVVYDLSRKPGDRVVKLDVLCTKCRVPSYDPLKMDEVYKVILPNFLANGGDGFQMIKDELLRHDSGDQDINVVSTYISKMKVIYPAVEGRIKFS
Protocol: The human immune cell-based CD73 enzyme inhibition assay was performed essentially as described above For the cell-free assay, with the following modifications. Human PBMCs (cat. no. HUMAN-PBMC-U-211140) or T cells (cat. no. 72400, Stem Cell Tech) were seeded at 8×10^3 cells/well into 96-well tissue culture-treated plates. […] Percent CD73 inhibition versus concentration were plotted using GraphPad Prism Version 8 and IC50's calculated using nonlinear regression analysis ([inhibitor]vs normalized response).

human T cells = experiment: Rescue of T cell activation in the presence of AMP; format: cell-based; conditions: CD25, 72 h
Protocol: Human T cells (cat. no. 72400, Stem Cell Tech) were activated with anti-CD3/CD28/CD2 T cell activator (cat. no. 10970, Stem Cell Technologies) and seeded at 1×10^5 cells/well in ImmunoCult™—XF T Cell Expansion medium into 96-well tissue culture-treated plates. Test articles were added at concentrations ranging from 1 to 10,000 nM. Next, adenosine 5′-monophosphate (AMP; cat. no 01930, Sigma) was added at 30 μM or 100 μM. Cells, test articles and AMP were incubated at 37° C., 5% CO2 for 72 h. After 72 h, cell supernatant was removed, and T cells were washed in staining buffer prior to staining for CD25 with anti-human CD25 PE antibody (cat. no 60153PE, Stem Cell Technologies, clone 2A3). After staining, cells were washed in staining buffer. 10,000 events were collected on flow cytometer Northern Lights (Cytek). Percent rescue versus concentration were plotted using GraphPad Prism Version 8 and EC50's calculated using nonlinear regression analysis ([inhibitor]vs normalized response).

[2] = target: T2, CD73 expressed on the MDA-MB-231 cell surface (Homo sapiens, UniProt P21589); experiment: Cell-based CD73 enzyme inhibition assay on MDA-MB-231 cells; conditions: AMP 400 μM, 3 h (FIG. 3)
T2 construct: host or cells: MDA-MB-231
T2 sequence (P21589 27-549): T1 sequence (P21589 27-549)
Protocol: The cell-based CD73 enzyme inhibition assay was performed essentially as described above for the cell-free assay, with the following modifications.
(§1) The cell-based CD73 enzyme inhibition assay was performed essentially as described above for the cell-free assay, with the following modifications. MDA-MB-231 human breast adenocarcinoma cells (ATCC CRM-HTB-26) were seeded at 2×10^4 cells/well/100 μL into 96-well tissue culture-treated plates (Corning Costar cat no. 3596) and incubated overnight at 37° C., 5% CO2. […] The 96-well plate was then centrifuged at 125×g for 5 min at room temperature and ATP (25 μL/well, 100 μM final) was combined with supernatant (25 μL/well) in a white opaque 96-well plate (Corning Costar cat no. 3912).
as §1, with “3912). […] Percent CD73 inhibition (y-axis) versus log10 inhibitor concentration (x-axis) were plotted using GraphPad Prism Version 8 and IC50's calculated using nonlinear regression analysis (Sigmoidal, 4 PL).” for “3912).”

CD73 = target: T3, CD73 (Homo sapiens, UniProt P21589); experiment: Cell-free CD73 inhibition IC50 (nM)
T3 sequence (P21589 27-549): T1 sequence (P21589 27-549)
Excerpt: Table printed on a drawing sheet, FIG. 24
Head of the field: Cell-free CD73 inhibition IC50 (nM)
Where the first naming reader finds the target: head: Cell-free CD73 inhibition IC50 (nM)

SMILES | IC50 [1] | EC50 (human T cells; 30 μM AMP) | EC50 (human T cells; 100 μM AMP) | IC50 [2] | IC50 (CD73)
COC[C@](CO)(OC[C@H]1O[C@@H](n2ncc3c(NC4CCCC4)nc(Cl)nc32)[C@H](O)[C@@H]1O)P(=O)(O)O [OP5244] | 0.02 nM | 2.88 nM | 8.37 nM |  | 
COC[C@](CO)(OC[C@H]1O[C@@H](n2ncc3c(NC4CCCC4)nc(Cl)nc32)[C@H](O)[C@@H]1O)P(=O)(O)O [OP-5244] |  |  |  | 0.31 nM | 2.25 nM
O=P(O)(O)COC[C@H]1O[C@@H](n2ncc3c(N4CC5(CCc6ccccc65)C4)nc(Cl)nc32)[C@H](O)[C@@H]1O [SHR170008] |  |  |  | 4.87 nM | 16.1 nM
